Results on 1 molecule are retold here after US12103916B2, “Antifungal compounds” (University of Kentucky Research Foundation, priority 2016, dated 2024).

Where two headings read alike, the source gives them in different places. Marks after values point to notes of the source that are not given here.

For test [1], the system named is Aspergillus terreus ATCC MYA-3633. The conditions noted are these: Table 1; strain M; control azoles; previously reported (refs 5, 16); cited from earlier work.
Test [2] relates to Candida glabrata ATCC 2001. The conditions noted are these: Table 1; strain H; control azoles; previously reported (refs 5, 16); cited from earlier work.
Test [3] relates to C. albicans ATCC 10231 (strain A). The test can be described thus: Time-kill assay, strain A. Type of test: cell-based, Candida albicans. The conditions noted are these: Ex.2 series, compound at 4×MIC, VOR control.
In test [4] the test system is Candida parapsilosis ATCC 22019. Description: MIC determination, strain J. It counts as cell-based. The conditions noted are these: Lodderomyces parapsilosis. On the procedure:
The antifungal activity of our new azole compounds 1-9 and 24-41 was first evaluated against a panel of seven Candida albicans strains (A-G), three non-albicans Candida strains […], and three Aspergillus strains (K-M) in a concentration range of 0.03-31.2 μg/mL (Table 1). […] For all of our azole derivatives we report their MIC-0 values against C. albicans ATCC 10231 (strain A) and all Aspergillus strains (K-M), which correspond to complete growth inhibition of these fungi. […] The commercially available antifungals AmB, FLC, ITC, POS, and VOR were used as reference drugs for comparison. The MIC values presented for these five control drugs were either tested herein or correspond to our previously published data^5, 16 as indicated in Table 1.
Antifungal activity in the absence or presence of serum. The antifungal activity of the newly prepared alkylated piperazine/morpholine-azole hybrids 16-28, of intermediate 14 that we used to verify that only final compounds exert antifungal activity, as well as that of alkylated piperazine/morpholine derivatives 1-10 were first evaluated against a panel of seven C. albicans (ATCC 10231 (A), ATCC 64124(R) (B), ATCC MYA-2876(S) (C), ATCC 90819(R) (D), ATCC MYA-2310(S) (E), ATCC MYA-1237(R) (F), and ATCC MYA-1003(R) (G)), three non-albicans Candida (C. glabrata ATCC 2001 (H), C. krusei ATCC 6258 (I), and C. parapsilosis ATCC 22019 (J)), and three Aspergillus (A. flavus ATCC MYA-3631 (K), A. nidulans ATCC 38163 (L), and A. terreus ATCC MYA-3633 (M)) strains using a concentration range of 0.03-31.3 μg/mL (Table 2).
Commercially available antifungal agents such as AmB, CAS, FLC, and VOR were used as positive controls for comparison. […] It is important to note that all comparisons to follow will be done by using the MIC values reported in μg/mL as the data were collected that way. However, we also present in parentheses in Table 2 the corresponding values in micromolar.
We used the commercially available antifungal agents such as AmB, caspofungin (CAS), FLC, and VOR as positive controls for comparison. For derivatives 5-16 as well as the reference drugs AmB and CAS, we reported MIC-0 values, which correspond to no visible growth. […] In this manuscript, we performed all activity comparisons by using the MIC values reported in μg/mL (Note: the corresponding MIC values are also provided in μM into parentheses in Tables 1, 2, S1, and S2).

Test [5] deals with ergosterol biosynthetic pathway (sterol 14α-demethylase) in C. albicans ATCC 10231 (strain A). The test can be described thus: Sterol composition by GC-MS, strain A. It counts as cell-based, Candida albicans. The text has this: FIG. 7A-FIG. 7H includes FIG. 7A. A simplified ergosterol biosynthetic pathway and products resulting from inhibition of ERG11. FIG. 7B-G. include GC-MS chromatograms of the sterols extracted from untreated and antifungals treated C. albicans strains. […] The peaks are for lanosterol (1), ergosterol (2), eburicol (3), 14-alpha-methyl ergosta 8,24(28)-dien-3-beta,6-alpha-diol (4), and unknown sterols (5 and 6). FIG. 7H is a table summarizing the percentage of each sterol from panels B-G.
FIG. 13A. A simplified ergosterol biosynthetic pathway and products resulting from inhibition of ERG11. FIG. 13B-FIG. 13F. GC-MS chromatograms of the sterols extracted from untreated and antifungal-treated C. albicans ATCC 10231 (strain A). […] The peaks in these chromatograms are for lanosterol (1), ergosterol (2), eburicol (3), 14α-methyl ergosta-8,24(28)-dien-3β,6α-diol (4), and three unknown sterols (5-7). FIG. 13G includes a table summarizing the percentage of each sterol from panels B-F.
No drug controls were also performed (FIGS. 7D and G).
Determination of sterol composition in c. albicans in the presence and absence of drugs. […] By using gas chromatography-mass spectrometry (GC-MS), we investigated the potential of the synthetic compounds to exert their antifungal activity by inhibiting the sterol 14α-demethylase enzyme of the ergosterol biosynthetic pathway (FIG. 13). […] A no drug control was also performed (FIG. 13A).
Since out of our compounds displaying antifungal activity only compound 8 caused membrane disruption of C. albicans ATCC 10231 (strain A) in the membrane permeabilization assay (section 2.6), we decided to explore by using gas chromatography-mass spectrometry (GC-MS) the effect of compounds 8 and 9 on sterol composition during ergosterol biosynthesis (the mechanism of action of other conventional azoles). […] We also used VOR at 0.12 μg/mL and no drug control for comparison.

Test [6] concerns C. albicans ATCC MYA-2310(S). As to conditions: Table 1; strain E; control azoles; previously reported (refs 5, 16); cited from earlier work.
Test [7] concerns Candida albicans ATCC 10231. The conditions noted are these: Table 1; strain A; control azoles FLC, ITC, POS, VOR; previously reported (refs 5, 16); cited from earlier work.
Test [8] deals with Aspergillus nidulans ATCC 38163. As to conditions: Table 1; strain L; control azoles; previously reported (refs 5, 16); cited from earlier work.
Setting [9] is: Ex.2 series, VOR 0.12, 20 0.48, 26 0.975 μg/mL.
Setting [10] is: Ex.3 series, VOR 0.12, 8 and 9 at sub-MIC […] and 0.975 μg/mL.

Consider `C[C@@H](c1ncncc1F)[C@](O)(Cn1cncn1)c1ccc(F)cc1F` [VOR, voriconazole], for which the “MIC (MIC-2)” value in test [1] is recorded as 0.12^c μg/mL; in test [2] it was 0.06^c μg/mL; in test [6], 0.975^c μg/mL; in test [7], 0.24^c μg/mL; in test [8] it was 0.03^c μg/mL. Further, in test [3], the “effect in time-kill assay” value is on record as “fungistatic”. The MIC was 0.015 µg/mL in test [4] (ATCC22019, read-out: MIC, Candida parapsilosis ATCC 22019 (J) (+10% FBS), Table 3, Ex.2 compounds, +10% FBS); 0.015 µg/mL in test [4] (ATCC22019, Table 3, Ex.2 compounds, no FBS, read-out: MIC, Candida parapsilosis ATCC 22019 (J) (no FBS)); < 0.03 µg/mL in test [4] (ATCC22019, read-out: MIC (MIC-2)); < 0.06 µM in test [4] (ATCC22019, read-out: MIC (MIC-2), in parentheses). In addition, the “ergosterol (2), percentage of sterols” value in test [5] (Ex.2 series, FLC 1.95, VOR 0.12, 20 0.48, 26 0.975 μg/mL) is recorded as 64.93%; in test [5] (setting [10]) it was 50.80%. The “eburicol (3), percentage of sterols” value in test [5] (setting [9]) was found to be 2.14%; in test [5] (setting [10]), 1.73%. Besides, the “lanosterol (1), percentage of sterols” value in test [5] (setting [9]) turned out to be 18.49%; in test [5] (setting [10]), 15.21%.
